Activity calls are given as the source filed them.
How the values were obtained:
Insulin-degrading enzyme [1] = molecular target: T1, Insulin-degrading enzyme (Homo sapiens, UniProt P14735); experiment: recombinant IDE activation, cell-free – biochemical, fluorescence polarization, counter-screen for IDE activator project, dose response (AID 588681)
T1 sequence (P14735 whole entry): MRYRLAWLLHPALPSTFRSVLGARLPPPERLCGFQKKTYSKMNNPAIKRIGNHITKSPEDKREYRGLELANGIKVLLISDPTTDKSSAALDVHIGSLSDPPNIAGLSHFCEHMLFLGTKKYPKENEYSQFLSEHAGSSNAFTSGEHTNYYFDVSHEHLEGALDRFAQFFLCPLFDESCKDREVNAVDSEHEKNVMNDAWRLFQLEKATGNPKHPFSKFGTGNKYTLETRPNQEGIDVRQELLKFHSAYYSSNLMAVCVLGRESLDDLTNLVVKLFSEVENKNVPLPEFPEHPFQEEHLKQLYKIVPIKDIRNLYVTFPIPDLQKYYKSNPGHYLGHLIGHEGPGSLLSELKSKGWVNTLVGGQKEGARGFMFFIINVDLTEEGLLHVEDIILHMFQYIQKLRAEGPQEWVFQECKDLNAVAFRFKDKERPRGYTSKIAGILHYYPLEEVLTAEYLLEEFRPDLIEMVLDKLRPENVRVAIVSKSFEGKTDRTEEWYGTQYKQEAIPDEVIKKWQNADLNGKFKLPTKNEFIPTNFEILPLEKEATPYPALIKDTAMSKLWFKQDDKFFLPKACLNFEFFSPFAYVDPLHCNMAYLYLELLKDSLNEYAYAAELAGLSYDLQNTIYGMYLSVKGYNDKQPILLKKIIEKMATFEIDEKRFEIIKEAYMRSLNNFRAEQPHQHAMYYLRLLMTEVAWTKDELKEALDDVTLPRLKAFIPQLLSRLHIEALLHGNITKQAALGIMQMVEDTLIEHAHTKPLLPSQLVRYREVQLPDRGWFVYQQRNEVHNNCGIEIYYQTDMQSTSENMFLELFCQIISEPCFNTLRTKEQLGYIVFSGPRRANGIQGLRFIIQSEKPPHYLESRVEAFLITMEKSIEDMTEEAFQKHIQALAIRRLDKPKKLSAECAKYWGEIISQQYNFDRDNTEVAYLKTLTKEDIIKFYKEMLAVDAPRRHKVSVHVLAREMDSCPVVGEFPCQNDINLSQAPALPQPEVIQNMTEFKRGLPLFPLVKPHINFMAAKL

Insulin-degrading enzyme [2] = molecular target: T1, Insulin-degrading enzyme; experiment: cellular IDE activation of Abeta substrate cleavage – fluorescence polarization, HEK cells, dose response (AID 588439); type: functional, cell-based
HEK293 [3] = experiment: membrane integrity loss in HEK cells – cell-based, fluorescence, cytotoxicity control for IDE activator project, dose response (AID 588440); type: functional; settings: Homo sapiens;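 further: cytotoxicity by LDH release measuring loss of membrane integrity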
HEK293 [4] = experiment: optical interference in Abeta FP readout, dose response, artefact control for IDE activator project, biochemical, fluorescence polarization (AID 588442); type: functional, cell-based; settings: Homo sapiens
[5] = molecular target: T2, Sentrin-specific protease 8 (Homo sapiens, UniProt Q96LD8); experiment: inhibition of human SENP8 cleavage activity – biochemical, luminescence, SAR follow-up (AID 504501); type: functional
T2 sequence (Q96LD8 whole entry): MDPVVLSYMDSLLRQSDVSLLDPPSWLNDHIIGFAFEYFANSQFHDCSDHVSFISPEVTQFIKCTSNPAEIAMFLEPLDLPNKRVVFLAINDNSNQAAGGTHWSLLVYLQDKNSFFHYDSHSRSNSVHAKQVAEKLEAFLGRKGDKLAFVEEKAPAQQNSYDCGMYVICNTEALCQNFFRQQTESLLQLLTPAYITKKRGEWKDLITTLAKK

Caspase-3 = molecular target: T3, Caspase-3 (Homo sapiens, UniProt P42574); experiment: SAR Analysis of small molecule inhibitors of Sentrin-specific proteases (SENPs) using a Caspase-3 Selectivity assay. [Related pubchem assays (depositor defined):AID2540, AID2599, AID434973, AID489001]; type: functional
T3 sequence (P42574 whole entry): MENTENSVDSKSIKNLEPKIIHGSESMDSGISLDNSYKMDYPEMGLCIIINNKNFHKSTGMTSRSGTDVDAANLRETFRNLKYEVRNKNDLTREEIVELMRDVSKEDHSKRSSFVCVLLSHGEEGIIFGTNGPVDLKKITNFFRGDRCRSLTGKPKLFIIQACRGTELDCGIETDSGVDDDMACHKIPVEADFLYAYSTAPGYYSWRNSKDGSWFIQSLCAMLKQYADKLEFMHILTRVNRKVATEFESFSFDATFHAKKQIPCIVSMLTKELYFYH

[6] = molecular target: T4, Sentrin-specific protease 6 (Homo sapiens, UniProt Q9GZR1); experiment: SAR Analysis of small molecule inhibitors of Sentrin-specific protease 6 (SENP6) using a Luminescent assay. [Related pubchem assays (depositor defined):AID2582, AID2599]; type: functional
T4 sequence (Q9GZR1 whole entry): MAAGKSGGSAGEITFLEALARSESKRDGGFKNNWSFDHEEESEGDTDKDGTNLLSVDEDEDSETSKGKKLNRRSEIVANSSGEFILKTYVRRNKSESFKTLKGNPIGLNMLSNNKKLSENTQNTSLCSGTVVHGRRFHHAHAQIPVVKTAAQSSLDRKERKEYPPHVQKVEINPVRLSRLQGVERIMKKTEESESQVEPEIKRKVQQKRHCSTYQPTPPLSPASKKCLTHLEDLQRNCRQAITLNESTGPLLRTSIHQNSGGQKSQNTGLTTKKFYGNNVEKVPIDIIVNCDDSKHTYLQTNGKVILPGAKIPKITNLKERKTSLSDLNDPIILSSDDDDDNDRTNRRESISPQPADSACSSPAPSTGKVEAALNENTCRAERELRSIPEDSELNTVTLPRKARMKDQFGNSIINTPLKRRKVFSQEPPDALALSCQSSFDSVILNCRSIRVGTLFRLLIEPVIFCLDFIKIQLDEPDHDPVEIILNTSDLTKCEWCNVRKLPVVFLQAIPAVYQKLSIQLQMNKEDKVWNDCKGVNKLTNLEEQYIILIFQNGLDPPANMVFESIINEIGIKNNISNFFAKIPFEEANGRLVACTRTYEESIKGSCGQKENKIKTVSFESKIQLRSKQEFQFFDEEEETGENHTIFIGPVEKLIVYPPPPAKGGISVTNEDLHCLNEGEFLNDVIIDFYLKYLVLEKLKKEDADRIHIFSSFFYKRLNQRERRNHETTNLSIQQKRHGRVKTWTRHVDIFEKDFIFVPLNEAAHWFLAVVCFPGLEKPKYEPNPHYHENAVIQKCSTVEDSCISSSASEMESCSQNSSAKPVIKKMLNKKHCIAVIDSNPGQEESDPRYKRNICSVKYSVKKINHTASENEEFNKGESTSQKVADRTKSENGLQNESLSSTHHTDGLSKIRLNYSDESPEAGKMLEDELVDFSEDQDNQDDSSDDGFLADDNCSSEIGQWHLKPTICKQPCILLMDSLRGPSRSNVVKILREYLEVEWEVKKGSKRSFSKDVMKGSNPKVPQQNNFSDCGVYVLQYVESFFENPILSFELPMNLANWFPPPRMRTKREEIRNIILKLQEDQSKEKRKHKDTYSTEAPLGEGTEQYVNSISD

[7] = molecular target: T5, Sentrin-specific protease 7 (Homo sapiens, UniProt Q9BQF6); experiment: inhibition of human SENP7 cleavage activity – biochemical, luminescence, SAR follow-up (AID 504497); type: functional
T5 sequence (Q9BQF6 whole entry): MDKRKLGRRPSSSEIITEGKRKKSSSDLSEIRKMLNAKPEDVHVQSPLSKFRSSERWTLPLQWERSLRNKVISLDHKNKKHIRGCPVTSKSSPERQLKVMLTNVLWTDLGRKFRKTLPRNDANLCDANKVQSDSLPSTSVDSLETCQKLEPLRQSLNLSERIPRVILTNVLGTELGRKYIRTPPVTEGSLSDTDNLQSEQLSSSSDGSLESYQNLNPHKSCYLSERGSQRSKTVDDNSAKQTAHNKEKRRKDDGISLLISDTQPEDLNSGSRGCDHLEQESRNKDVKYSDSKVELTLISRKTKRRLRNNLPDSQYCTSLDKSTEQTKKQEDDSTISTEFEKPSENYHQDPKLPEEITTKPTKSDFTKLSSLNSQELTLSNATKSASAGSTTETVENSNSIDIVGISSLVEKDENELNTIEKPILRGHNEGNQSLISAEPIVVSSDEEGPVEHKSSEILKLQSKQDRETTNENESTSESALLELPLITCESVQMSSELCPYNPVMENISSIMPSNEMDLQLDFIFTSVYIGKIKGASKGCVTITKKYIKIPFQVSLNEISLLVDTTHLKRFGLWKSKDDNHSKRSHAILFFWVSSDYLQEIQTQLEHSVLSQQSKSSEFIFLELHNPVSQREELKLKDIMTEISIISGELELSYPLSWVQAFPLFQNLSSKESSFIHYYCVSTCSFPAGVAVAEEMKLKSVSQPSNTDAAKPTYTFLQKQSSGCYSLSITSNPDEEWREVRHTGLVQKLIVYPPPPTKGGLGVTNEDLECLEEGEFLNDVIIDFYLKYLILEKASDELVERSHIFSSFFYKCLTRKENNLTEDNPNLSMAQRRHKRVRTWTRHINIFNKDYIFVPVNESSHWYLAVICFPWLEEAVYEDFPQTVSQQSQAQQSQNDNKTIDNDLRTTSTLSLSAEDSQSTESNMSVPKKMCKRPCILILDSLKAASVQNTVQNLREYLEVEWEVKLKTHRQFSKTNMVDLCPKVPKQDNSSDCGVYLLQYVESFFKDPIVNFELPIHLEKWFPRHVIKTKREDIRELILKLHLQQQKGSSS

IC50 (Caspase-3) | IC50 [6] | IC50 [7] | SMILES | EC50 (Insulin-degrading enzyme [1]) | EC50 (Insulin-degrading enzyme [2]) | IC50 (HEK293 [3]) | EC50 (HEK293 [4]) | IC50 [5]
 |  |  | CCOC(=O)c1cccc(P(C)(C)=O)c1 | > 54.7 µM (inactive) | > 54.7 µM (inactive) | > 89.1 µM (inactive) | > 54.7 µM (inactive) | 
> 99 µM (inactive) | > 99 µM (inactive) | > 99 µM (inactive) | NS(=O)(=O)c1ccc(CCNC(=O)c2sc3cc(Cl)ccc3c2Cl)cc1 |  |  |  |  | > 99 µM (inactive)
